In paper PMC11432330, “Novel Drug-like HsrA Inhibitors Exhibit Potent Narrow-Spectrum Antimicrobial Activities against Helicobacter pylori” (International Journal of Molecular Sciences, 2024):
Converted amounts (≈) assume the structure as drawn. Read-outs that look alike come from different tables or passages of the source. Values belong to the compound of their own block, whether it stands above or below them.

Assays:
[1] = system: H. pylori ATCC 43504 (MTZ-R); assay: MIC/MBC, broth microdilution; assay type: cell-based, Helicobacter pylori; conditions: H. pylori ATCC 43504 (MTZ-R)
Protocol: (§1) The antimicrobial activity of the HsrA inhibitors was evaluated by the determination of the minimal inhibitory concentration (MIC) against four different strains of H. pylori: ATCC 700392 (aka 26695), ATCC 43504 (MTZ-resistant reference strain), ATCC 700684 (CLR-resistant reference strain), and Donostia 2 (LVX-resistant clinical isolate). The MICs were determined by the broth microdilution method, as previously described. Briefly, H. pylori strains were grown in blood agar at 37 °C for 72 h under microaerobic conditions. Fresh inoculums adjusted at OD600 = 0.01 [~10^6 colony forming units (CFU) per mL] in BHI broth supplemented with 4% fetal bovine serum (BHI + FBS) were prepared and immediately exposed to final concentrations between 64 and 0.031 mg/L of each compound of interest. The compound solvent (DMSO) as well as conventional antibiotics (MTZ, CLR, LVX) were included as controls. […] Each experiment was performed twice in triplicate. The MIC and MBC values of the selected compounds against C. jejuni ATCC 33560 were determined by using the same method and culture conditions described for the H. pylori strains.

[2] = system: H. pylori ATCC 700392 (26695); assay: MIC/MBC, broth microdilution; assay type: cell-based, Helicobacter pylori; conditions: H. pylori ATCC 700392 (26695)
Protocol: as §1

[3] = system: H. pylori ATCC 700684 (CLR-R); assay: MIC/MBC, broth microdilution; assay type: cell-based, Helicobacter pylori
Protocol: as §1

[4] = system: H. pylori Donostia 2 (LVX-R); assay: MIC/MBC, broth microdilution; assay type: cell-based, Helicobacter pylori; conditions: H. pylori Donostia 2 (LVX-R)
Protocol: as §1

H. pylori = system: H. pylori; parameters: method as in PMID 31383920, PMID 34354964; conditions: ref [40],[70]; cited from earlier work
E. coli ATCC 25922 = assay: MIC/MBC according to EUCAST guidelines; assay type: cell-based; conditions: Escherichia coli, ATCC25922
Protocol: (§2) The antimicrobial activities of the selected compounds against several Gram-negative and Gran-positive representative species of normal human microbiota were determined according to the EUCAST guidelines. Briefly, standardized inoculums (0.5 McFarland) were freshly prepared from overnight Mueller–Hinton agar plates of reference strains E. coli ATCC 25922, K. pneumonia ATCC 700603, E. faecalis ATCC 29212, S. aureus ATCC 29213, S. epidermidis ATCC 12228, and S. agalactiae ATCC 12386. Next, bacterial suspensions adjusted to 5 × 10^5 CFU/mL in Mueller–Hinton broth were exposed to a range of concentrations from 64 to 0.031 mg/L of the selected compounds. DMSO and conventional antibiotics LVX and AMP were included as controls. […] Experiments were performed twice in triplicate.

E. faecalis ATCC 29212 = assay: MIC/MBC according to EUCAST guidelines; assay type: cell-based; conditions: Enterococcus faecalis, ATCC29212
Protocol: as §2

S. agalactiae ATCC 12386 = assay: MIC/MBC according to EUCAST guidelines; assay type: cell-based; conditions: Streptococcus agalactiae, ATCC12386
Protocol: as §2

S. aureus ATCC 29213 = assay: MIC/MBC according to EUCAST guidelines; assay type: cell-based; conditions: Staphylococcus aureus, ATCC29213
Protocol: as §2

[5] = system: S. epidermidis ATCC 12228; assay: MIC/MBC according to EUCAST guidelines; assay type: cell-based; conditions: Staphylococcus epidermidis, ATCC12228
Protocol: as §2

[6] = system: T1, HsrA (Helicobacter pylori 26695), ORF:12bb3c8f; assay: EMSA; conditions: EMSA: 10 mM bis-Tris pH 7.5, 40 mM KCl, 100 mg/L BSA, 1 mM DTT, 5% glycerol; room temperature 20 min; 6% native gel, SYBR Safe
T1 sequence: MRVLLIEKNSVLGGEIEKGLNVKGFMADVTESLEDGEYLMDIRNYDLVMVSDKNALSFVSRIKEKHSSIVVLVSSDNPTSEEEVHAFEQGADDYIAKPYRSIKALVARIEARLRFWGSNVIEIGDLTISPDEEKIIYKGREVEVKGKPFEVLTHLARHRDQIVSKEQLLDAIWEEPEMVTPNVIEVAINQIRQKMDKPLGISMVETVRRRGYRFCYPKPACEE

C. jejuni ATCC 33560 = assay: MIC/MBC, broth microdilution; assay type: cell-based; conditions: Campylobacter jejuni, ATCC33560, C. jejuni ATCC 33560
Protocol: as §1

[7] = system: K. pneumoniae ATCC 700603; assay: MIC/MBC according to EUCAST guidelines; assay type: cell-based, Klebsiella pneumonia; conditions: Klebsiella pneumoniae, ATCC700603
Protocol: as §2

[8] = Helicobacter pylori, ATCC43504, read-out: MBC
[9] = Helicobacter pylori, ATCC43504, read-out: MIC
[10] = Helicobacter pylori, ATCC700392, read-out: MBC
[11] = Helicobacter pylori, ATCC700392, read-out: MIC
[12] = Helicobacter pylori, ATCC700684, read-out: MBC
[13] = Helicobacter pylori, ATCC700684, read-out: MIC
[14] = Helicobacter pylori, read-out: MBC
[15] = Helicobacter pylori, read-out: MIC

MIC [1]: 4 mg/L (≈ 11.3 µM) | MIC [2]: 16 mg/L (≈ 45 µM) | MIC [3]: 8 mg/L (≈ 22.5 µM) | MIC [4]: 8 mg/L (≈ 22.5 µM)
Compound: CCOC(=O)c1ccc(-n2nnc(C=CC=CN3CCOCC3)n2)cc1 [Ligand XVII]
MBC [1]: 8 mg/L (≈ 22.5 µM) | MBC [2]: 16 mg/L (≈ 45 µM) | MBC [3]: 8 mg/L (≈ 22.5 µM) | MBC [4]: 8 mg/L (≈ 22.5 µM)

MIC [1]: 4 mg/L (≈ 9.36 µM) | MIC [2]: 8 mg/L (≈ 18.7 µM) | MIC [3]: 4 mg/L (≈ 9.36 µM) | MIC [4]: 8 mg/L (≈ 18.7 µM)
Compound: NC(Cn1ccc(C(F)(F)F)n1)=NOC(=O)Nc1ccc(SC(F)(F)F)cc1 [Ligand IX]
MBC [1]: 8 mg/L (≈ 18.7 µM) | MBC [2]: 16 mg/L (≈ 37.4 µM) | MBC [3]: 8 mg/L (≈ 18.7 µM) | MBC [4]: 16 mg/L (≈ 37.4 µM)

MIC [1]: 8 mg/L (≈ 19.6 µM) | MIC [2]: 8 mg/L (≈ 19.6 µM) | MIC [3]: 8 mg/L (≈ 19.6 µM) | MIC [4]: 8 mg/L (≈ 19.6 µM)
Compound: Cc1oc2ccccc2c1CC(=O)NNC(=S)Nc1cccc(C(F)(F)F)c1 [Ligand X]
MBC [1]: 8 mg/L (≈ 19.6 µM) | MBC [2]: 16 mg/L (≈ 39.3 µM) | MBC [3]: 8 mg/L (≈ 19.6 µM) | MBC [4]: 16 mg/L (≈ 39.3 µM)

Compound: COc1ccc([C@@H]2CC(=O)c3c(O)cc(O)cc3O2)cc1O [hesperetin]
Combinatory action with clarithromycin or metronidazole against H. pylori (H. pylori): strong synergistic bactericidal action

MIC (E. coli ATCC 25922): 4 µg/mL (≈ 11.4 µM) | MIC (E. faecalis ATCC 29212): 4 µg/mL (≈ 11.4 µM) | MIC (S. agalactiae ATCC 12386): 0.25 µg/mL (≈ 0.715 µM) | MIC (S. aureus ATCC 29213): 2 µg/mL (≈ 5.72 µM) | MIC [5]: 4 µg/mL (≈ 11.4 µM)
Compound: CC1(C)S[C@@H]2[C@H](NC(=O)[C@H](N)c3ccccc3)C(=O)N2[C@H]1C(=O)O [AMP, ampicillin, reference compound]
MBC (E. coli ATCC 25922): 4 µg/mL (≈ 11.4 µM) | MBC (E. faecalis ATCC 29212): 4 µg/mL (≈ 11.4 µM) | MBC (S. agalactiae ATCC 12386): 0.5 µg/mL (≈ 1.43 µM) | MBC (S. aureus ATCC 29213): 4 µg/mL (≈ 11.4 µM) | MBC [5]: 4 µg/mL (≈ 11.4 µM)

MIC [1]: 16 mg/L (≈ 35.7 µM) | MIC [2]: 32 mg/L (≈ 71.4 µM) | MIC [3]: 32 mg/L (≈ 71.4 µM) | MIC [4]: 32 mg/L (≈ 71.4 µM)
Compound: Cc1sc2c(c1C)C(O)=C(C(=O)Nc1ccc(OC(F)(F)F)cc1)S(=O)(=O)N2C [Ligand XXVIII]
MBC [1]: 16 mg/L (≈ 35.7 µM) | MBC [2]: 64 mg/L (≈ 143 µM) | MBC [3]: 32 mg/L (≈ 71.4 µM) | MBC [4]: 32 mg/L (≈ 71.4 µM)

Compound: CCCCACACTTGCCCCATACAGACTAAAATCAAATCACACCTTAAATAATAACAAAGTTTAAAATAAATATTAGTGGTTTTTATTAAGAACGCTTGTCTTTTTAGAATAAATGGCCATAAAATAGCCATAATTCTTGTAGGTATGCCCCCATTTTCCTATAAAAATTCCTAAAAAGATATTGTTATAAGACACATTAATAGTTTTTCTTGTATAATTCTAGGCTGAATTCAATTTATTTTATACGATATTAAGGAGACATATTACCATGTTTCAAATTAGATGGCATGC (double strand) [PporG (porGDAB promoter)]
binding [6]: binds

MIC [1]: 64 mg/L (≈ 171 µM) | MIC [2]: > 64 mg/L | MIC [3]: > 64 mg/L | MIC [4]: > 64 mg/L
Compound: CC(=O)Nc1cc(C(=O)c2cccs2)nn(-c2ccc(Cl)cc2)c1=O [Ligand XXXI]
MBC [1]: 64 mg/L (≈ 171 µM) | MBC [2]: > 64 mg/L | MBC [3]: > 64 mg/L | MBC [4]: > 64 mg/L

MIC [1, 9]: < 0.03 mg/L | MIC [2, 11]: < 0.03 mg/L | MIC [3, 13]: 16 mg/L (≈ 21.4 µM) | MIC [4, 15]: < 0.03 mg/L
Compound: CC[C@H]1OC(=O)[C@H](C)[C@@H](O[C@H]2C[C@@](C)(OC)[C@@H](O)[C@H](C)O2)[C@H](C)[C@@H](O[C@@H]2O[C@H](C)C[C@H](N(C)C)[C@H]2O)[C@](C)(OC)C[C@@H](C)C(=O)[C@H](C)[C@@H](O)[C@]1(C)O [CLR, clarithromycin, reference compound]
MBC [1, 8]: < 0.03 mg/L | MBC [2, 10]: < 0.03 mg/L | MBC [3, 12]: 32 mg/L (≈ 42.8 µM) | MBC [4, 14]: < 0.03 mg/L

MIC [1, 9]: 0.5 mg/L (≈ 1.38 µM) | MIC [2, 11]: 0.12 mg/L (≈ 0.332 µM) | MIC [3, 13]: 0.12 mg/L (≈ 0.332 µM) | MIC [4, 15]: 16 mg/L (≈ 44.3 µM) | MIC (C. jejuni ATCC 33560): < 0.12 µg/mL | MIC [7]: 0.5 µg/mL (≈ 1.38 µM)
Compound: C[C@H]1COc2c(N3CCN(C)CC3)c(F)cc3c(=O)c(C(=O)O)cn1c23 [LVX, levofloxacin, reference compound]
MBC [1, 8]: 0.5 mg/L (≈ 1.38 µM) | MBC [2, 10]: 0.12 mg/L (≈ 0.332 µM) | MBC [3, 12]: 0.12 mg/L (≈ 0.332 µM) | MBC [4, 14]: 32 mg/L (≈ 88.6 µM) | MBC (C. jejuni ATCC 33560): < 0.12 µg/mL | MBC [7]: 0.5 µg/mL (≈ 1.38 µM)

Compound: O=c1cc(-c2ccccc2)oc2cc(O)cc(O)c12 [chrysin]
Combinatory action with clarithromycin or metronidazole against H. pylori (H. pylori): strong synergistic bactericidal action

MIC [1, 9]: 64 mg/L (≈ 374 µM) | MIC [2, 11]: 1 mg/L (≈ 5.84 µM) | MIC [3, 13]: 1 mg/L (≈ 5.84 µM) | MIC [4, 15]: 8 mg/L (≈ 46.7 µM)
Compound: Cc1ncc([N+](=O)[O-])n1CCO [MTZ, metronidazole, reference compound]
MBC [1, 8]: 128 mg/L (≈ 748 µM) | MBC [2, 10]: 2 mg/L (≈ 11.7 µM) | MBC [3, 12]: 2 mg/L (≈ 11.7 µM) | MBC [4, 14]: 8 mg/L (≈ 46.7 µM)
